From patent publication US8884023B2, “Pyrano [3,2-D][1,3]thiazole as glycosidase inhibitors” (priority 2011, dated 2014)
Like-named read-outs stand apart in the source and are kept apart here.

Experiments:
[1] = molecular target: T1, His-Tagged hOGA (human O-GlcNAcase) (Homo sapiens, UniProt O60502); assay: biochemical
T1 sequence (O60502 1-916): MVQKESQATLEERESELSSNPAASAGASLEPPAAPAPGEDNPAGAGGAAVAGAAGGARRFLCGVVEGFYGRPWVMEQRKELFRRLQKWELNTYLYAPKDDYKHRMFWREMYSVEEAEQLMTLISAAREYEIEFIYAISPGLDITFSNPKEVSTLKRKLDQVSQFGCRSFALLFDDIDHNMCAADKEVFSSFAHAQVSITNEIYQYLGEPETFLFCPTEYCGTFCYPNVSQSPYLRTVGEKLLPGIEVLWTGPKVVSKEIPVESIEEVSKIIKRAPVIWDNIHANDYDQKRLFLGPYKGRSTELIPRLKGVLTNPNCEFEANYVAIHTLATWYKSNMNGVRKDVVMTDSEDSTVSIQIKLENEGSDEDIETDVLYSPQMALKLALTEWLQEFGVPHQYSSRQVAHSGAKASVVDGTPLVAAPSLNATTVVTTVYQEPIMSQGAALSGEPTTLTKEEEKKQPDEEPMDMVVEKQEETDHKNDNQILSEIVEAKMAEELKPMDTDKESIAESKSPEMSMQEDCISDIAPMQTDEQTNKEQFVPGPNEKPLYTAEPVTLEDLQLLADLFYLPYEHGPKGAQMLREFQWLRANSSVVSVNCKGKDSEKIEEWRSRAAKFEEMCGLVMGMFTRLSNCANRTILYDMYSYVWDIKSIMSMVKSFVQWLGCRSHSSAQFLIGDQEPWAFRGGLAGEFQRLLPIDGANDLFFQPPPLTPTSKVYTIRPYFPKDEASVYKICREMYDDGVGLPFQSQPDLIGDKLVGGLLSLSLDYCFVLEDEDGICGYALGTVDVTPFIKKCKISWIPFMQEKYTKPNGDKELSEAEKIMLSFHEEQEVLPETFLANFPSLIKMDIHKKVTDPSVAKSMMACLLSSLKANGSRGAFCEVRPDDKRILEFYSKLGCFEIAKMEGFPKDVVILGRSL
Description: Human O-GlcNAcase Enzyme Inhibition Assay
The following reaction components were added to a final volume of 10 μL in McIlvaine's Buffer (pH 6.5):
20 nM His-Tagged hOGA and 10 μM Fluoroscein mono-beta-D-(2-deoxy-2-N-acetyl) glucopyranoside (FL-GlcNAc; Marker Gene Technologies Inc, Part #M1485). […] The amount of fluorescence measured was plotted against the concentration of inhibitor to produce a sigmoidal dose response curve, from which an IC50 was calculated.

[2] = molecular target: T2, O-GlcNAcase (UniProt Q8VIJ5); format: cell-based
T2 sequence (Q8VIJ5 1-916): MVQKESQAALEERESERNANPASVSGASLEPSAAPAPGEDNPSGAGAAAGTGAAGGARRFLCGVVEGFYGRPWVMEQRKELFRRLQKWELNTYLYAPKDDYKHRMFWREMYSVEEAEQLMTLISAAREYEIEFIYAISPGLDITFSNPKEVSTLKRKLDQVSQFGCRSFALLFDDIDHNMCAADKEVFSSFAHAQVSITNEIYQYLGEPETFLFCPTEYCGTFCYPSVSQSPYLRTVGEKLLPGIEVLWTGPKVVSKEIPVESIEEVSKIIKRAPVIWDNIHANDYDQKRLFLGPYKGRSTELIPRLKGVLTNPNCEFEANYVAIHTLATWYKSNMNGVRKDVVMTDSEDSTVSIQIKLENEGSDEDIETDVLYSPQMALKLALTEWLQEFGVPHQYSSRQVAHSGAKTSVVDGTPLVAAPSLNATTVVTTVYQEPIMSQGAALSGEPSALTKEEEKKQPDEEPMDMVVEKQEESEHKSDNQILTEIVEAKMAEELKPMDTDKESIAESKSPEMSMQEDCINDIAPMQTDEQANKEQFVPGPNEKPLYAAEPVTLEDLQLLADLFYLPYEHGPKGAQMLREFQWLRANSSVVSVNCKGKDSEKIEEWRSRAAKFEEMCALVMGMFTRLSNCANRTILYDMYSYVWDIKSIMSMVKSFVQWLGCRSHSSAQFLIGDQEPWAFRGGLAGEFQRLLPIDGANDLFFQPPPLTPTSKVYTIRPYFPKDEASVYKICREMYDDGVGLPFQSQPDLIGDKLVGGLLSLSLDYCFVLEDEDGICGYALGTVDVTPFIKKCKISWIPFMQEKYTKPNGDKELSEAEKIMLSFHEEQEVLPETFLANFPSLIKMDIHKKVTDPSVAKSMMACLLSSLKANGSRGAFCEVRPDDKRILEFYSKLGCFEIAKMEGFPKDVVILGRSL
Text: Assay for the Determination of Cellular Activity for Compounds that Inhibit O-GlcNAcase Activity
Inhibition of O-GlcNAcase, which removes O-GlcNAc from cellular proteins, results in an increase in the level of O-GlcNAcylated proteins in cells. An increase in the O-GlcNAcylation of cellular proteins can be measured by an antibody, such as CTD110.6, that binds O-GlcNAcylated proteins. The amount of O-GlcNAcylated protein can be determined by the enzyme linked immunoabsorbant assay (ELISA) technique.
Cell lines, such as rat B35, rat PC-12 and human SH-SY5Y cells, expressing endogenous levels of O-GlcNAcase, could be utilized. Cells were plated in 96-well plates at a density of approximately 10,000 cells/well. Compounds to be tested were dissolved in DMSO as 10 mM stock solution, and then diluted first with DMSO and then culture media using the Bravo workstation. Cells were treated with diluted compounds for approximately 16 hours. […] To prepare a cell lysate, the media from compound treated cells were removed, and the cells were washed once with Dulbecco's phosphate buffered saline (DPBS) and then lysed for 30 minutes in 100 μl/well of ice cold RIPA buffer containing a protease inhibitor cocktail.
The ELISA portion of the assay was performed in EIA/RIA plates that were coated overnight at 4 C with 80 μl/well of cell lysate. The following day the wells were washed 6 times with 200 μl of wash buffer (0.05% Tween20 in DPBS). The wells were blocked with 200 μl blocking buffer (1% BSA, 0.05% Tween20 in DPBS) for 1 h at room temperature. Each well was then washed 6 times with 200 μl of wash buffer. The anti-O-GlcNAc antibody CTD110.6 (Covance, Princeton, N.J.) was added at 100 μl/well at a concentration of 10 μg/ml. The plates were incubated for 1 h at room temperature. The wells were then washed 6 times with 200 μl/well of wash buffer. To detect the amount of CTD110.6 bound to the cell lysate, alkaline phosphatase conjugated goat anti-mouse IgM (diluted 1:500 in blocking buffer) was added at 100 μl/well and incubated for 45 min at room temperature. Each well was then washed 6 times with 200 μl/well of wash buffer. PNPP tablets dissolved in diethanolamine substrate buffer and 100 μl/well were added as detection reagent.
The amount of O-GlcNAcylated protein, as detected by the ELISA assay, was plotted for each concentration of test compound using standard curve fitting algorithms for sigmoidal dose response curves. The values for a four parameter logistic curve fit of the data were determined, with the inflection point of the curve being the potency value for the test compound.

[3] = read-out: OGA enzyme inhibition (IC50)
[4] = cells expressing endogenous O-GlcNAcase (such as rat B35, rat PC-12, human SH-SY5Y), approximately 16 hours treatment; read-out: OGA cellular inhibition (EC50)

Compound | IC50 [1, 3] [µM] | EC50 [2, 4] [µM] | IC50 [1] [µM] | EC50 ([2]; read-out: OGA cellular inhibition (EC50); cells expressing endogenous O-GlcNAcase (such as rat B35, rat PC-12, human SH-SY5Y), approximately 16 hours treatment) [µM]
CCNC1=N[C@@H]2[C@@H](O)[C@H](O)[C@@H](Cn3cc(COc4ccc(Cl)cc4)nn3)O[C@@H]2S1 [compound 92] | < 0.1 | 0.1 to 0.5 |  | 
CCNC1=N[C@@H]2[C@@H](O)[C@H](O)[C@@H](Cn3cc(COc4ccc(C)cc4)nn3)O[C@@H]2S1 [compound 91] | 0.1 to 0.5 | > 1 |  | 
CCNC1=N[C@@H]2[C@@H](O)[C@H](O)[C@@H](Cn3cc(C(=O)OC)nn3)O[C@@H]2S1 [compound no. 10, Methyl 1-{[(3aR,5R,6S,7R,7aR)-2-(ethylamino)-6,7-dihydroxy-5,6,7,7a-tetrahydro-3aH-pyrano[3,2-d][1,3]thiazol-5-yl]methyl}-1H-1,2,3-triazole-4-carboxylate] | 0.1 to 0.5 | 0.5 to 1 |  | 
CCNC1=N[C@@H]2[C@@H](O)[C@H](O)[C@@H](Cn3cc(COc4ccc(F)cc4)nn3)O[C@@H]2S1 [compound 93] | < 0.1 | > 1 |  | 
CCNC1=N[C@@H]2[C@@H](O)[C@H](O)[C@@H](Cn3cc(COc4ccccc4Cl)nn3)O[C@@H]2S1 [compound 86] |  | < 0.1 | < 0.1 | 
CCNC1=N[C@@H]2[C@@H](O)[C@H](O)[C@@H](Cn3cc(-c4ccccn4)nn3)O[C@@H]2S1 [compound no. 7, (3aR,5R,6S,7R,7aR)-2-(ethylamino)-5-[(4-pyridin-2-yl-1H-1,2,3-triazol-1-yl)methyl]-5,6,7,7a-tetrahydro-3aH-pyrano[3,2-d][1,3]thiazole-6,7-diol] | 0.1 to 0.5 | > 1 |  | 
CCNC1=N[C@@H]2[C@@H](O)[C@H](O)[C@@H](Cn3cc(CCc4ccccc4)nn3)O[C@@H]2S1 [compound no. 6, (3aR,5R,6S,7R,7aR)-2-(ethylamino)-5-{[4-(2-phenylethyl)-1H-1,2,3-triazol-1-yl]methyl}-5,6,7,7a-tetrahydro-3aH-pyrano[3,2-d][1,3]thiazole-6,7-diol] |  | 0.5 to 1 | < 0.1 | 
CCNC1=N[C@@H]2[C@@H](O)[C@H](O)[C@@H](Cn3cc(CN(C)c4ccccc4)nn3)O[C@@H]2S1 [compound 71] |  | > 1 | 0.1 to 0.5 | 
CCNC1=N[C@@H]2[C@@H](O)[C@H](O)[C@@H](CN=[N+]=[N-])O[C@@H]2S1 [compound no. 1, (3aR,5R,6S,7R,7aR)-5-(azidomethyl)-2-(ethylamino)-5,6,7,7a-tetrahydro-3aH-pyrano[3,2-d][1,3]thiazole-6,7-diol] |  |  |  | 0.1 to 0.5
CCNC1=N[C@@H]2[C@@H](O)[C@H](O)[C@@H](C(=O)CCc3ccccc3)O[C@@H]2S1 [compound no. 59, 1-[(3aR,5S,6S,7R,7aR)-2-(ethylamino)-6,7-dihydroxy-5,6,7,7a-tetrahydro-3aH-pyrano[3,2-d][1,3]thiazol-5-yl]-3-phenylpropan-1-one] | > 1 |  |  | 
CCNC1=N[C@@H]2[C@@H](O)[C@H](O)[C@@H](COCc3ccccc3)O[C@@H]2S1 [compound no. 8, (3aR,5R,6S,7R,7aR)-5-[(benzyloxy)methyl]-2-(ethylamino)-5,6,7,7a-tetrahydro-3aH-pyrano[3,2-d][1,3]thiazole-6,7-diol] | > 1 |  |  | 
CCNC1=N[C@@H]2[C@@H](O)[C@H](O)[C@@H](C(=O)O)O[C@@H]2S1 [compound no. 9, (3aR,5S,6S,7R,7aR)-2-(ethylamino)-6,7-dihydroxy-5,6,7,7a-tetrahydro-3aH-pyrano[3,2-d]thiazole-5-carboxylic acid] | > 1 |  |  | 
CCNC1=N[C@@H]2[C@@H](O)[C@H](O)[C@@H](CN)O[C@@H]2S1 [compound no. 61, (3aR,5R,6S,7R,7aR)-5-(aminomethyl)-2-(ethylamino)-5,6,7,7a-tetrahydro-3aH-pyrano[3,2-d][1,3]thiazole-6,7-diol] |  |  | 0.1 to 0.5 | 
CCNC1=N[C@@H]2[C@@H](O)[C@H](O)[C@@H](Cn3cc(COc4ccccc4CNC)nn3)O[C@@H]2S1 [compound 83] |  |  | 0.5 to 1 | 
CCNC1=N[C@@H]2[C@@H](O)[C@H](O)[C@@H]([C@H](O)CCCc3ccccc3)O[C@@H]2S1 [compound no. 55, (3aR,5R,6S,7R,7aR)-2-(ethylamino)-5-((R)1-hydroxy-4-phenylbutyl)-5,6,7,7a-tetrahydro-3aH-pyrano[3,2-d][1,3]thiazole-6,7-diol] |  |  | > 1 | 
CCNC1=N[C@@H]2[C@@H](O)[C@H](O)[C@@H](Cn3cc(C4(c5ccccc5)CC4)nn3)O[C@@H]2S1 [compound 99] | < 0.1 |  |  | 
CCN(C(=O)OC)C1=N[C@@H]2[C@@H](O)[C@H](O)[C@@H](CO)O[C@@H]2S1 [compound no. 49, Methyl-[(3aR,5R,6S,7R,7aR)-6,7-dihydroxy-5-(hydroxymethyl)-5,6,7,7a-tetrahydro-3aH-pyrano[3,2-d][1,3]thiazol-2-yl]ethylcarbamate] |  |  | < 0.1 | 
CCNC1=N[C@@H]2[C@@H](O)[C@H](O)[C@@H]([C@@H](O)CCCc3ccccc3)O[C@@H]2S1 [compound no. 56, (3aR,5R,6S,7R,7aR)-2-(ethylamino)-5-((S)1-hydroxy-4-phenylbutyl)-5,6,7,7a-tetrahydro-3aH-pyrano[3,2-d][1,3]thiazole-6,7-diol] |  |  | 0.1 to 0.5 | 
CCNC1=N[C@@H]2[C@@H](O)[C@H](O)[C@@H](Cn3cc(C4(c5ccccc5)CCCC4)nn3)O[C@@H]2S1 [compound 100] |  |  | 0.1 to 0.5 | 
